Series [1] concerns iMSCs. Put plainly: Cell viability (CCK8) after lipopeptide/placZ transfection. The series is classed as cell-based. Conditions: 24 h. The procedure:
(§1) Lipopeptide (LP1 or LP2) was dissolved in MeOH in order to create a lipid film with a desired concentration. Afterwards, the organic solvent was removed under nitrogen flow, obtaining the corresponding lipid film. The film was then hydrated with 1 mL of OptiMEM Reduced Serum Medium (1X). Lipopeptide/pDNA complexes were then formed by mixing placZ or pGFP plasmid (742 ng) with the corresponding lipopeptide (LP1 or LP2) solution to obtain various concentrations (2.5–50 µg/mL), thus being able to carry out different analysis. All mixtures were allowed to complex for 30 min at rt before being used in different experiments. Lipofectamine was used as positive control; their corresponding lipoplexes were prepared with the same plasmid concentrations and the recommended reagent volume, according to the manufacturer instructions.
(§2) HEK 293T (75000 cells/well in 48 well‐plates) or iMSCs (10000 cells/well in 96 well‐plates) were allowed to attach for 24 h at 37 °C before the experiments. Then, cells were transfected with lipopeptide (LP1 or LP2)/pDNA (placZ or pGFP) complexes and incubated for 24 h at 37 °C and 5% CO2. Untransfected cells (negative control) or cells transfected with Lipofectamine (positive control) were assessed in parallel. All conditions were evaluated by quadrupled.
(§3) Viability of the cell monolayers was monitored at 24 h using the CCK8 reagent, following the supplier's instructions (Neo Biotech, France). Briefly, cells were washed with 1X PBS (pH 7.4), and then incubated with CCK8 reagent (100 µL; 1:10 dilution in DMEM) for at least 2 h at 37 °C and 5% CO2. The absorbance (Abs) signal at 450 nm was measured in a Sinergy HTX Plate reader. Cell viability was obtained with the following formula: Cellviability%=Abssample450nm/Abscontrol450nm×100

For series [2], the system named is HEK 293T cells. The series is described as above. The format is cell-based. Conditions: 24 h. The protocol: as §1, §2, §3
Series [3] has as its system iMSCs. In words: Cell viability after pGFP transfection (cell number vs untransfected control). The series is classed as cell-based. To be noted: pGFP complexes, LP1 100 µg/mL, LP2 40 µg/mL. The procedure:
In parallel, in situ transfection of iMSCs was evaluated by confocal microscopy (Nikon, Tokyo, Japan) based on GFP expression (Figure 7a). Transfection efficiency was quantified using ImageJ software by calculating the percentage of GFP‐positive cells relative to the total number of cells in four randomly selected fields per condition (Figure 7b). Cell viability was determined by comparing the number of cells in each sample with that of the untransfected control (Figure 7c).

Square brackets hold non-standard residues; d marks the D form. Peptide text beside a SMILES is read from it. * marks the point of attachment. Oleoyl = CCCCCCCC/C=C\CCCCCCCC(=O)*; Dap = NC[C@H](N)C(=O)O

With `CCCCCCCC/C=C\CCCCCCCC(=O)NC[C@H](NC(=O)CCCCCCC/C=C\CCCCCCCC)C(=O)N[C@@H](CCCCN)C(=O)N[C@@H](CCCCN)C(=O)N[C@@H](CCCCN)C(=O)O` [LP1, Dioleoyl‐DapKKK] (Oleoyl-[Dap](Oleoyl)KKK-OH), the Z-potential is 25.2 mV. Besides, the cell viability result in series [1] is “above 75%”. Also, the cell viability entry in series [2] is “above 75%”. Besides, the “cytotoxicity / cell viability compared with LPF” value in series [3] is on record as “higher cytotoxicity than LPF”.

The molecule `CCCCCCCC/C=C\CCCCCCCC(=O)NCCCC[C@H](NC(=O)CCCCCCC/C=C\CCCCCCCC)C(=O)N[C@@H](CCCCN)C(=O)N[C@@H](CCCCN)C(=O)N[C@@H](CCCCN)C(=O)O` [LP2, Dioleoyl‐KKKK] (Oleoyl-K(Oleoyl)KKK-OH) came in with a Z-potential of 25.2 mV. For the same molecule, in series [1], the cell viability entry is on record as “above 75%”. The cell viability result in series [2] is given as “above 75%”. Moreover, the “cytotoxicity / cell viability compared with LPF” value in series [3] is on record as “higher than in the LPF group”.
